Test results reported in article PMC8722715 (Frontiers in Cell and Developmental Biology, 2021).

How the values were obtained:
hNaV1.7 channel = target: T1, hNaV1.7 channel (Homo sapiens, UniProt Q15858); test: Automated patch-clamp block of hNaV1.7 peak Na+ current in CHO cells; type: cell-based; details: for IC50: CHO cells stably expressing hNaV1.7, SyncroPatch 384 PE whole-cell, holding -100 mV, -10 mV test pulse 50 ms every 5 s, room temperature 18-22°C, 0.3% BSA, steady state or end of 15-min application, mean, S.E.M. and n cells; for hNaV1.7 IC50 versus WT: ratio of analogue mean IC50 to HwTx-IV WT mean IC50 on hNaV1.7
T1 construct: expressed in transfected cells
T1 sequence (Q15858 whole entry): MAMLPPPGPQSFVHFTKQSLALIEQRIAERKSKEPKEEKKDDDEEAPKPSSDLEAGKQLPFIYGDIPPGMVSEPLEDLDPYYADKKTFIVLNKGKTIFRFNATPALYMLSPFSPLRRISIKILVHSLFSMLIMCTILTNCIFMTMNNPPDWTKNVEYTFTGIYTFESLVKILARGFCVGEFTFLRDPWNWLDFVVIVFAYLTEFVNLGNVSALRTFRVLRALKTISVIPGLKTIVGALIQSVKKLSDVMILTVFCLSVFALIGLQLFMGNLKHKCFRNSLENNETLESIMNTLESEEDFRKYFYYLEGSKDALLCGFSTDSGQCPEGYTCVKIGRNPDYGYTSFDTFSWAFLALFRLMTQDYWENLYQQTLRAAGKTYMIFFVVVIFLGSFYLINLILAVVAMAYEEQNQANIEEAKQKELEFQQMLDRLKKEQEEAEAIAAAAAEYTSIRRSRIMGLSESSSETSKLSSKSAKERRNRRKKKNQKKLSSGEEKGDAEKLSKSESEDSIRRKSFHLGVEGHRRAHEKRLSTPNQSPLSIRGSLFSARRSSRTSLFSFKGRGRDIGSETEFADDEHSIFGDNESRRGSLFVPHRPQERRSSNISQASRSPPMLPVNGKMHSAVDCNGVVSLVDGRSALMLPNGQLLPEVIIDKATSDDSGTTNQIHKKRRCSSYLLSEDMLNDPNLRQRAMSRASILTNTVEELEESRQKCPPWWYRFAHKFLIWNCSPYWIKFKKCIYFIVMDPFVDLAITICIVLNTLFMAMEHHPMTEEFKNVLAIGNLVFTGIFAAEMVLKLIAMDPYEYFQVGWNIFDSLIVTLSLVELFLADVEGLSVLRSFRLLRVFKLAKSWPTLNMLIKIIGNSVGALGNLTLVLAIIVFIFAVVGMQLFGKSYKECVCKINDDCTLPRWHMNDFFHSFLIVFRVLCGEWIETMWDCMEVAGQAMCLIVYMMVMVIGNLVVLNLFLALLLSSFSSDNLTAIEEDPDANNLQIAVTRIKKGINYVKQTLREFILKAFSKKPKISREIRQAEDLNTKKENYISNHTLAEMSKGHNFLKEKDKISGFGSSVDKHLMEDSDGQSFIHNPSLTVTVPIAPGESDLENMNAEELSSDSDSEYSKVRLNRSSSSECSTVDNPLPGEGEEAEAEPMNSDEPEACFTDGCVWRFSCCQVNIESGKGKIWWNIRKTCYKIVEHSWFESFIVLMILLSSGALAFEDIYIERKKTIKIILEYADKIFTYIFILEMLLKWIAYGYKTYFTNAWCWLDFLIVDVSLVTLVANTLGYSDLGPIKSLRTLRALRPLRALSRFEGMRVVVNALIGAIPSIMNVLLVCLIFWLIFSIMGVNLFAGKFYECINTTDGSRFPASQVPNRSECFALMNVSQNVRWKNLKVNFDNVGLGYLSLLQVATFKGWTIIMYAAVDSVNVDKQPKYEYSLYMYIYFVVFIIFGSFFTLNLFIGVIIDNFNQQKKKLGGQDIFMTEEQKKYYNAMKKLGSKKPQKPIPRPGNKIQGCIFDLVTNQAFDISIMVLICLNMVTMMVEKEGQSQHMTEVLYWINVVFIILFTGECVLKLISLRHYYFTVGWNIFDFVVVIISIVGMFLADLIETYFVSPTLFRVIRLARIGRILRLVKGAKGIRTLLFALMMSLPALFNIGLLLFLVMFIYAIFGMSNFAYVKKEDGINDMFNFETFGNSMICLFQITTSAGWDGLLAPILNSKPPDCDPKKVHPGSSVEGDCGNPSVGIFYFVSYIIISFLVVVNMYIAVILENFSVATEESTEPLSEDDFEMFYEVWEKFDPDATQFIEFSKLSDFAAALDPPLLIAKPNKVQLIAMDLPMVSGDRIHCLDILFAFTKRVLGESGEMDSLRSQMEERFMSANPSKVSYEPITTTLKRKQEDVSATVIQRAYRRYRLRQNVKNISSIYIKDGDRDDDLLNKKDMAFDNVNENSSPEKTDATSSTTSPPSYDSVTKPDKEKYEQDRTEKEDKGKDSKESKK
In short: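 Automated whole-cell patch clamp on CHO cells stably expressing hNaV1.7, held at −100 mV at 18–22°C. Peak current evoked by 50 ms steps to −10 or 0 mV every 5 s; HwTx-IV analogues applied in extracellular solution with 0.3% BSA. Percent inhibition taken at steady-state block or after 15 min application.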

hNaV1.6 channel = target: T2, hNaV1.6 channel (Homo sapiens, UniProt Q9UQD0); test: Automated patch-clamp block of hNaV1.6 peak Na+ current in HEK-293 cells; type: cell-based; details: for IC50: HEK-293 cells stably expressing hNaV1.6, SyncroPatch 384 PE whole-cell, holding -100 mV, 0 mV test pulse 50 ms every 5 s, room temperature 18-22°C, 0.3% BSA, steady state or end of 15-min application, mean, S.E.M. and n cells; for hNaV1.6 IC50 versus WT: ratio of analogue mean IC50 to HwTx-IV WT mean IC50 on hNaV1.6
T2 construct: expressed in transfected cells
T2 sequence (Q9UQD0 whole entry): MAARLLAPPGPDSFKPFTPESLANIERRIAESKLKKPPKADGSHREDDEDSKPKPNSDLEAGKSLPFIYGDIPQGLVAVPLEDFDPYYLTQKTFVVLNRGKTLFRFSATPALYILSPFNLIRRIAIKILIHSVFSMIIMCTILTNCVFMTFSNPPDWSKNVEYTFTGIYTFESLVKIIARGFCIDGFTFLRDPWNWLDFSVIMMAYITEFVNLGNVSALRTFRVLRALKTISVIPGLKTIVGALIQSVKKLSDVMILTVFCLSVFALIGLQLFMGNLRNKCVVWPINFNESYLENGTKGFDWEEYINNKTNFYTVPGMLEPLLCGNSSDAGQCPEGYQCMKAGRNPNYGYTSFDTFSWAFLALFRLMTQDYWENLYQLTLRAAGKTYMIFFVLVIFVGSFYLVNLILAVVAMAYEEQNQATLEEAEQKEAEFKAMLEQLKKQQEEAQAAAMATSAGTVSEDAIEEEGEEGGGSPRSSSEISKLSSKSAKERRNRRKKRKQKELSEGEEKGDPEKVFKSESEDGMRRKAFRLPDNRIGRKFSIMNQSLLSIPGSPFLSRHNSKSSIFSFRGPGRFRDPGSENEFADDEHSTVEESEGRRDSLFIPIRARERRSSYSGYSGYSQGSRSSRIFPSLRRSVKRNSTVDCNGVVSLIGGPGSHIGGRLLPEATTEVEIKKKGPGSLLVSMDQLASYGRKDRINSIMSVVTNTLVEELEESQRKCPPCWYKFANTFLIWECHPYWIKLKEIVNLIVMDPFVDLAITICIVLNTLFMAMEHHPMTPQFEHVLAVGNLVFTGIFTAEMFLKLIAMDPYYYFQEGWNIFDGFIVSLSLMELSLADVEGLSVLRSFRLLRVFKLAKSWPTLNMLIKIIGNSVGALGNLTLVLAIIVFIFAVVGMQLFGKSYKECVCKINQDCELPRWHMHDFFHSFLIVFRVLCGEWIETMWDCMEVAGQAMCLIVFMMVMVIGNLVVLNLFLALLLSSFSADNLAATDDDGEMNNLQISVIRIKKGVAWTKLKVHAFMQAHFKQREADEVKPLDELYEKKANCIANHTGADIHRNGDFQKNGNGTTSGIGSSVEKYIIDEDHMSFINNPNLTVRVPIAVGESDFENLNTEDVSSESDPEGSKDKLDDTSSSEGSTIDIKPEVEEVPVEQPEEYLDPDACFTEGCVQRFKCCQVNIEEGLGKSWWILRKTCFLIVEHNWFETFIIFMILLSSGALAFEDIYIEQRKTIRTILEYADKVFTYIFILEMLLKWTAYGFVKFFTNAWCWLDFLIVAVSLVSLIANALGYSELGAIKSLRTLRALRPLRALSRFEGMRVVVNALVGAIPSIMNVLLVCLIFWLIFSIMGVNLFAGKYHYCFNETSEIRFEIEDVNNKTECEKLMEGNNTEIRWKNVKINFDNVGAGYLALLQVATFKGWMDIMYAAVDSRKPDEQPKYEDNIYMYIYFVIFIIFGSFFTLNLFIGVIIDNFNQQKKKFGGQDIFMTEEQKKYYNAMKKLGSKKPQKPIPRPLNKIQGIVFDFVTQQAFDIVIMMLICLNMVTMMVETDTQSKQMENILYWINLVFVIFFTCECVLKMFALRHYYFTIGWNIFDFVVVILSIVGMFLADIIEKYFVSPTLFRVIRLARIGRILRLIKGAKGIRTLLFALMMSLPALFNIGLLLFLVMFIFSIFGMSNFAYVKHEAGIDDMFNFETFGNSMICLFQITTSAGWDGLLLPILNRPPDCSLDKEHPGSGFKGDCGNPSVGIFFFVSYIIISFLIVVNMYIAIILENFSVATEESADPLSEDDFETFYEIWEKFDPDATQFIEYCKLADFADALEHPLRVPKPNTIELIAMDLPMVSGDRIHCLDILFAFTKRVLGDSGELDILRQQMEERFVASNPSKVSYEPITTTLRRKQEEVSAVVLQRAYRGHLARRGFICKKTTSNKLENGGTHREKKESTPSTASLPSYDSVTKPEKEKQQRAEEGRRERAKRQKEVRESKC
In short: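 Whole-cell automated patch clamp at −100 mV holding, room temperature (18–22°C), CsF-based internal, 0.3% BSA in external solution; 50 ms steps to −10 or 0 mV every 5 s. Percent peak-current inhibition taken at steady-state block or after 15 min application, used for dose-response curves.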

Structure (SMILES) | IC50 (hNaV1.7 channel) [nM] | hNaV1.7 IC50 versus WT (hNaV1.7 channel) | IC50 (hNaV1.6 channel) [nM] | hNaV1.6 IC50 versus WT (hNaV1.6 channel)
CC[C@H](C)[C@H](NC(=O)[C@H](CCC(N)=O)NC(=O)[C@H](Cc1ccc(O)cc1)NC(=O)[C@H](CCCCN)NC(=O)[C@@H]1CSSC[C@@H]2NC(=O)[C@H](CCC(N)=O)NC(=O)[C@H](CC(=O)O)NC(=O)[C@H](CC(N)=O)NC(=O)[C@H](CO)NC(=O)[C@@H]3CCCN3C(=O)[C@H](CC(N)=O)NC(=O)[C@@H]3CSSC[C@H](NC(=O)[C@H](C(C)C)NC(=O)[C@H](CC(C)C)NC(=O)[C@H](CCCCN)NC(=O)[C@H](CO)NC(=O)[C@H](CO)NC(=O)[C@H](CCCCN)NC(=O)[C@H](CSSC[C@H](NC(=O)[C@@H](N)CCC(=O)O)C(=O)N[C@@H](CC(C)C)C(=O)N[C@@H](CCC(=O)O)C(=O)N[C@@H]([C@@H](C)CC)C(=O)N[C@@H](Cc4ccccc4)C(=O)N[C@@H](CCCCN)C(=O)N[C@@H](C)C(=O)N3)NC2=O)C(=O)N[C@@H](CO)C(=O)N[C@@H](C)C(=O)N[C@@H](CCCCN)C(=O)N[C@@H]([C@@H](C)O)C(=O)N[C@@H](CCCNC(=N)N)C(=O)N[C@@H](Cc2c[nH]c3ccccc23)C(=O)N1)C(N)=O [HwTx-IV R ^26A] | 112 | 11.28 | 614 | 2.71
CC[C@H](C)[C@H](NC(=O)[C@H](CCC(N)=O)NC(=O)[C@H](Cc1ccc(O)cc1)NC(=O)[C@H](CCCCN)NC(=O)[C@@H]1CSSC[C@@H]2NC(=O)[C@H](CCC(N)=O)NC(=O)[C@H](CC(=O)O)NC(=O)[C@H](CC(N)=O)NC(=O)[C@H](CO)NC(=O)[C@@H]3CCCN3C(=O)[C@H](CC(N)=O)NC(=O)[C@@H]3CSSC[C@H](NC(=O)[C@H](C(C)C)NC(=O)[C@H](CC(C)C)NC(=O)[C@H](CCCCN)NC(=O)[C@H](CO)NC(=O)[C@H](CO)NC(=O)[C@H](CCCCN)NC(=O)[C@H](CSSC[C@H](NC(=O)[C@@H](N)CCC(=O)O)C(=O)N[C@@H](CC(C)C)C(=O)N[C@@H](CCC(=O)O)C(=O)N[C@@H]([C@@H](C)CC)C(=O)N[C@@H](Cc4ccccc4)C(=O)N[C@@H](CCCCN)C(=O)N[C@@H](C)C(=O)N3)NC2=O)C(=O)N[C@@H](CO)C(=O)N[C@@H](CCC(N)=O)C(=O)N[C@@H](CCCCN)C(=O)N[C@@H]([C@@H](C)O)C(=O)N[C@@H](CCCNC(=N)N)C(=O)N[C@@H](Cc2c[nH]c3ccccc23)C(=O)N1)C(N)=O [HwTx-IV R ^26Q] | 141 | 14.28 | > 1000 | >4.4
CC[C@H](C)[C@H](NC(=O)[C@H](CCC(N)=O)NC(=O)[C@H](Cc1c[nH]c2ccccc12)NC(=O)[C@H](CCCCN)NC(=O)[C@@H]1CSSC[C@@H]2NC(=O)[C@H](CCC(N)=O)NC(=O)[C@H](CC(=O)O)NC(=O)[C@H](CC(N)=O)NC(=O)[C@H](CO)NC(=O)[C@@H]3CCCN3C(=O)[C@H](CC(N)=O)NC(=O)[C@@H]3CSSC[C@H](NC(=O)[C@H](C(C)C)NC(=O)[C@H](CC(C)C)NC(=O)[C@H](CCCCN)NC(=O)[C@H](CO)NC(=O)[C@H](CO)NC(=O)[C@H](CCCCN)NC(=O)[C@H](CSSC[C@H](NC(=O)[C@@H](N)CCC(=O)O)C(=O)N[C@@H](CC(C)C)C(=O)N[C@@H](CCC(=O)O)C(=O)N[C@@H]([C@@H](C)CC)C(=O)N[C@@H](Cc4ccccc4)C(=O)N[C@@H](CCCCN)C(=O)N[C@@H](C)C(=O)N3)NC2=O)C(=O)N[C@@H](CO)C(=O)N[C@@H](CCCNC(=N)N)C(=O)N[C@@H](CCCCN)C(=O)N[C@@H]([C@@H](C)O)C(=O)N[C@@H](CCCNC(=N)N)C(=O)N[C@@H](Cc2c[nH]c3ccccc23)C(=O)N1)C(N)=O [HwTx-IV Y^33W] | 22.2 | 2.24 | 207 | 0.91
